The values that follow come from patent publication US9464097B2, “Gold complexes” (UNIVERSITY COURT OF THE UNIVERSITY OF ST. ANDREWS, priority 2010, dated 2016).

The test system of series [1] is human urothelial cell line (SV-HUC-1). Briefly: Cytotoxicity assay (CCK-8 viability), SV-HUC-1. In kind it is cell-based. The following applies: SV-HUC-1, 3 days incubation. The procedure: (§1) Cytotoxicity assay: The compound/complex was dissolved in DMSO and diluted in DMSO. The final dilution was in the respective culture medium and the final concentration of DMSO was always below 0.01%. Cells were pipetted into microtitre plates (NUNC) at 4000 cells/well and incubated at 37° C. in 5% CO2 in air for 24 hr. Varying concentrations of the compounds/complexes were applied to the cells in 10 μl volumes. The plates were incubated for 3 days at 37° C. 5% CO2 in air. The viability of the cells was measured using the Dojindo kit CCK-8 (Cell counting Kit—8, Dojindo technologies USA, CK04-11) method after incubation for 3 hr in the absence of light. The plates were read on an ELISA plate reader at a wavelength of 450 nm.

The subject of series [2] is LNCaP (prostate carcinoma) cell line. Briefly: Cytotoxicity assay (CCK-8 viability), LNCaP. In kind it is cell-based, human. The following applies: 3 days incubation. The procedure: as §1
The next series concerns human cancer cell lines. As to the kind of experiment: Cytotoxicity towards human cancer cell lines, overall comparison with cisplatin. Type of series: cell-based. Conditions: cytotoxicity across the tested cell lines. The procedure: as §1
The conditions of series [3]: proton borne by the heteroatom, literature value; cited from earlier work.

Structures are written as SMILES.

Turning to `N.N.[Cl][Pt][Cl]` [cisplatin], the half-inhibitory concentration (IC50) in series [1] stood at 25 µM; in series [2], 18 µM.

In the case of `CC(C)c1cccc(C(C)C)c1N1C=CN(c2c(C(C)C)cccc2C(C)C)[CH]1[Au][OH]` [complex 2, [Au(OH)(IPr)]], the “Overall activity compared with cisplatin” value with human cancer cell lines was “superior to that displayed by cisplatin”.

Turning to `Cc1ccc(O)cc1` [p-cresol (14b), p-cresol], in series [3], the pKa is 18.9.

Regarding `Cc1ccc(S)cc1` [p-thiocresol (14a), p-thiocresol], the pKa in series [3] is 10.3.
